Laboratory results taken from publication PMC5444469, “Involvement of three putative glucosyltransferases from the UGT72 family in flavonol glucoside/rhamnoside biosynthesis in Lotus japonicus seeds” (Journal of Experimental Botany, 2016).

B1: UGT72Z2 (Lotus japonicus) (protein)
chain: MAKTIHIAAVSIPAFSHQASIIEFCKKLLHLHHHYHVTCIFPTIDAPVAATLKLLQSLPSTIDFKFLPPVNKQDLPQDVSPAVQIQLAVSQSMPSFRDTMRSLHSTTPHLTALIADPFANEALEIGKEFNLLSYIYFPPSAMTLSLFLHLPKLHEEVSCEYRDLTEPIQIPGCIPIQGQDLPEHFQDRSSLAYDLILKRCKRFSLADGFLVNSFLELEEGTVKALQEQNRGNRGENRGNRGKNRGNRDSPVFLVGPVIQTGPSSEPKGSESEYCVRWLENQIPKSVLYVSFGSGGTLSQEQMNELAFGLELSGQKFLWVVRAPSDSANAAYLGVGNEDPLKFLPSGFIERTKGQGLVIPSWAPQTQILSHSSIGGFLTHCGWNSVLESIVLGVPMITWPLFAEQRMNAVLLTDGVKVALRPKFDENGIVKREEIAVVVKGLMQGEEGNGIHHRIEVLKEAAADALKEDGSSTRALSQFGNQIENFLALK
notes: full-length ORF cloned from leaf cDNA; MBP fusion (pMAL-c2x), E. coli Novablue, maltose-resin purified

Columns and labels:
Conditions in all cases: 4 mM UDP-glucose, pH 7.5, 30 °C, 10 mM DTT
UGT72AD1 = system: T1, UGT72AD1; assay: HPLC glucosylation assay; type: biochemical, Lotus japonicus
T1 construct: full-length ORF cloned from leaf cDNA; MBP fusion (pMAL-c2x), E. coli Novablue, maltose-resin purified

purified protein = substrate: O=c1c(O)c(-c2cc(O)c(O)c(O)c2)oc2cc(O)cc(O)c12; assay: purified protein
HPLC glucosylation assay [1] = substrate: O=c1c(O)c(-c2ccc(O)cc2)oc2cc(O)cc(O)c12; assay: HPLC glucosylation assay; type: biochemical, Lotus japonicus
Excerpt: (§1) HPLC glucosylation assay on UGT72Z2 | UGT72Z2 ...

HPLC glucosylation assay [2] = substrate: O=c1c(O)c(-c2ccc(O)c(O)c2)oc2cc(O)cc(O)c12; assay: HPLC glucosylation assay; type: biochemical, Lotus japonicus
Excerpt: as §1

| Molecule | Km (UGT72AD1) | Km (purified protein) | Km (HPLC glucosylation assay [1]) | Km (HPLC glucosylation assay [2]) |
| --- | --- | --- | --- | --- |
| O=c1c(O)c(-c2cc(O)c(O)c(O)c2)oc2cc(O)cc(O)c12 [myricetin] | 390 µM |  |  |  |
| O=c1c(O)c(-c2ccc(O)cc2)oc2cc(O)cc(O)c12 [kaempferol] | 330 µM |  |  |  |
| O=c1c(O)c(-c2ccc(O)c(O)c2)oc2cc(O)cc(O)c12 [quercetin] | 310 µM |  |  |  |
| B1 |  | 46 µM | 40 µM | 68 µM |
